In ChEMBL document CHEMBL1128967, “Quantification of the extent of attenuation of the rate of turnover chemistry of the TEM-1 -lactamase by the -1R-hydroxyethyl group in substrates” (Bioorg Med Chem Lett, 1996):

Experiments:
[1] = (§1) Compound was evaluated for the beta-lactamase activity as a substrate.
[2] = target: Beta-lactamase (Enterobacter cloacae) (UniProt P05364); experiment: as §1
[3] = Compound was evaluated for the beta-lactamase activity as a substrate expressed as ratio of kcat/Km.
[4] = Compound was evaluated for beta-lactamase activity as a substrate.
[5] = Compound was evaluated for the beta-lactamase activity as substrate expressed as ratio of kcat/Km.

Beta-lactamase (Enterobacter cloacae), sequence (P05364 21-381 limits assumed): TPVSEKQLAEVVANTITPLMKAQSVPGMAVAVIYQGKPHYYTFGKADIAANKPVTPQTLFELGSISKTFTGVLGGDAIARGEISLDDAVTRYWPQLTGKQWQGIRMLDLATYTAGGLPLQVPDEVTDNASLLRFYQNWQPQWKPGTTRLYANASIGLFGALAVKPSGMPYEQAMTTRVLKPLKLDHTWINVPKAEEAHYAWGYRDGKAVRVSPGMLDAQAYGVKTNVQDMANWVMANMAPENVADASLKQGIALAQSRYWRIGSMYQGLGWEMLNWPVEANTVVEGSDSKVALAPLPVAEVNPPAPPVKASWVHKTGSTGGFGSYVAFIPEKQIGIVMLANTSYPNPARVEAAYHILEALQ

For `C[C@@H](O)[C@@H]1C(=O)N2[C@@H]1SC(C)(C)[C@@H]2C(=O)O`, the Km [1] was 1.6 µM, the Ks [1] was 13.5 µM and the k3 [1] was 0.5 s⁻¹. For the same compound, the k cat [1] was 0.4 s⁻¹, the k cat/Km [1] was 2.8 M⁻¹ s⁻¹ and the k2 [2] was 3.7 s⁻¹.

`CC1(C)S[C@@H]2CC(=O)N2[C@H]1C(=O)O` showed a k cat/Km [3] of 6.6 M⁻¹ s⁻¹.

In the case of `C[C@@H](O)[C@H]1C(=O)N2C(C(=O)O)=C(SCCNC=N)C[C@H]12`, the k cat [1] is reported as 0.04 s⁻¹, the Km [4] is reported as 27 µM and the Ratio [5] is reported as 1480 M⁻¹ s⁻¹.

In the case of `C[C@@H](O)[C@H]1C(=O)N2[C@@H]1SC(C)(C)[C@@H]2C(=O)O`, the k cat/Km [5] is reported as 27 M⁻¹ s⁻¹.
